One may read the AUC as the area under the concentration-time curve, a measure of exposure. A lower AUC goes with less exposure. One may read the Cmax as the maximum level reached in the sampled fluid or tissue.

Data set [1] can be described thus: Stability of compounds in simulated intestinal fluid (SIF). The format is in vitro ADME. To be noted: simulated intestinal fluid (3 mg/mL pancreatin), incubation time 6 hr, relative to t=0. As for the experimental part:
(§1) Test compounds were incubated at […] in simulated gastric fluid (SGF; standard USP solution with 3 mg/mL pepsin) or simulated intestinal fluid (SIF; standard USP solution with 3 mg/mL pancreatin) for 3 hr or 6 hr. HPLC-UV or HPLC-MS were used to determine test compound levels using peak area %. Results (Table 14) were reported as the percentage of test compound remaining after incubation in a given condition relative to test compound present at t=0 in the same condition.

Data set [2] in a line: Stability of compounds in simulated gastric fluid (SGF). As to conditions: simulated gastric fluid (3 mg/mL pepsin), incubation time 6 hr, relative to t=0. The format is in vitro ADME. As to the method: as §1
Data set [3] can be described thus: Determination of compound Cmax and AUC after oral gavage (plasma LC-MS/MS). The format is in vivo, Sprague-Dawley rats. To be noted: Sprague-Dawley, rat, plasma, po, Structure (I) examples, Table 15, actual oral dose 3-15 mg/kg, plasma 0.5-4 h. As for the experimental part: Sprague-Dawley rats were orally gavaged with test article at a nominal dose of 2.5 or 10 mg/kg and blood was collected at 0.5, 1, 2 and 4 h. Blood samples were processed to plasma using K2EDTA as an anticoaglulant. Plasma samples were treated with acetonitrile containing an internal standard, precipitated proteins removed by centrifugation. Supernatants were analyzed by LC-MS/MS and compound concentrations were determined by interpolation from a standard curve prepared in plasma. All compounds were orally dosed at the dosage shown, and pharmacokinetic parameters determined.
(§2) Sprague-Dawley rats were orally gavaged with test article at a nominal dose of 2.5 or 10 mg/kg and blood was collected at 0.5, 1, 2 and 4 h. Blood samples were processed to plasma using K2EDTA as an anticoaglulant. Plasma samples were treated with acetonitrile containing an internal standard, precipitated proteins removed by centrifugation. Supernatants were analyzed by LC-MS/MS and compound concentrations were determined by interpolated from a standard curve prepared in plasma. All compounds were orally dosed at the dosage shown, and pharmacokinetic parameters determined.
as §2

A further data set has as its target T1, rat NaP2b (SLC34A2) (Rattus norvegicus, UniProt Q9JJ09).
T1 construct: host or cells: HEK293
T1 sequence (Q9JJ09 1-695): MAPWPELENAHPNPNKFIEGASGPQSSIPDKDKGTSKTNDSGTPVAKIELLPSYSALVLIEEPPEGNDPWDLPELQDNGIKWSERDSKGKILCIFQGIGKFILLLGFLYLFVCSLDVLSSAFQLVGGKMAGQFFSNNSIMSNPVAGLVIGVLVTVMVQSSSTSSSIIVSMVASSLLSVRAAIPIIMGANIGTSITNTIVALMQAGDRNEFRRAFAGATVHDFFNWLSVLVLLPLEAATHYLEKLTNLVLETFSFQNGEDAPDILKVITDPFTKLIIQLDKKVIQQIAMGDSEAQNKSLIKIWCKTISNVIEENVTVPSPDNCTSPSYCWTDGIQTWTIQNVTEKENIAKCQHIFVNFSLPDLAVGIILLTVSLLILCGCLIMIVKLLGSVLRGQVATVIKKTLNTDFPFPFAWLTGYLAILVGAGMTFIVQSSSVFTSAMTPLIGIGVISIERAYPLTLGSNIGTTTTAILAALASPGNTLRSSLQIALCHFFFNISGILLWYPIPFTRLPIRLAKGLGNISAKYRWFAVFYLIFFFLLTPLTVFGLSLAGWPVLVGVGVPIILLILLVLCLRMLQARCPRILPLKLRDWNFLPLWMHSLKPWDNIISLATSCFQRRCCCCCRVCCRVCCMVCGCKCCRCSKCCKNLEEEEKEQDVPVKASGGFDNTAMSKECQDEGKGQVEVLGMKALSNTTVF
Description: Inhibition of NaP2b-mediated Pi (33P) uptake in transfected HEK293 cells, rat NaP2b. To be noted: 33P Pi uptake, 0.1 mM phosphate, value given as pIC50 range. The format is cell-based. Summed up:
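The cells transiently expressed NaP2b after Lipofectamine transfection. Each compound was run in duplicate over twelve concentrations, 0.1 nM–30 uM.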

The next data set deals with T2, human NaP2b (SLC34A2) (Homo sapiens, UniProt O95436).
T2 construct: host or cells: HEK293
T2 sequence (O95436 1-690): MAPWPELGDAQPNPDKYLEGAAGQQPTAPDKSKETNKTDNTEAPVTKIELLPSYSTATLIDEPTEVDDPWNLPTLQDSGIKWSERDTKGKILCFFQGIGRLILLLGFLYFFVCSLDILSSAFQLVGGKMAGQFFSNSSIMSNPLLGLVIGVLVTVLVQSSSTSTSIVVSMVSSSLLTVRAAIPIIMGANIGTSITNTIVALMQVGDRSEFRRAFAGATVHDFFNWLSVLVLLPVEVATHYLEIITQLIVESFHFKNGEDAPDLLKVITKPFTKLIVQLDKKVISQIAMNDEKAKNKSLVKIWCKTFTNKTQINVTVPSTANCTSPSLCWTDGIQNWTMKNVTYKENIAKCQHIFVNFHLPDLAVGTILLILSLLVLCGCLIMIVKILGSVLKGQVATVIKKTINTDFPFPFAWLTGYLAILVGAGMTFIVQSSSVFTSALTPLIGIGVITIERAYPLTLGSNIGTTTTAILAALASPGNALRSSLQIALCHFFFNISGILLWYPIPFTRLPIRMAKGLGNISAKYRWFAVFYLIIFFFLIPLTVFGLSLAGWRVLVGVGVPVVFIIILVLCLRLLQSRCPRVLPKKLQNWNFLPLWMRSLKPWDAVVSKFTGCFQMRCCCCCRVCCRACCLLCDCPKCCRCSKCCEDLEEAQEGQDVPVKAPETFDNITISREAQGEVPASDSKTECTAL
The data set can be described thus: Inhibition of NaP2b-mediated Pi (33P) uptake in transfected HEK293 cells, human NaP2b. The format is cell-based. As to conditions: read-out: pIC50 range for human NaP2b (converted). Summed up: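 Uptake of 33P-phosphate (100 uM KH2PO4 carrier, sodium vs choline buffer, pH 7.4) measured after 3-30 min at room temperature, with test compound at twelve concentrations from 0.1 nM to 30 uM in duplicate. Cells were HEK293 transfected with mutated human NaP2b (Thr insertion after 37, N39D) and treated with a PiT-silencing agent. pIC50 values from scintillation counts.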

Bounds are passed on as bounds.

In the case of `CCN(CC)c1ccc(NC(=O)c2cccc(C(=O)N(C)CCN3CCOCC3)c2)c(-c2cc(C(=O)N[C@H]3CCCc4ccccc43)ccn2)c1` [Example 131, (S)—N^1-(4-(diethylamino)-2-(4-((1,2,3,4-tetrahydronaphthalen-1-yl)carbamoyl)pyridin-2-yl)phenyl)-N^3-methyl-N^3-(2-morpholinoethyl)isophthalamide], the “% remaining, SIF” value in data set [1] is >80%. Also, the “% remaining, SGF” value in data set [2] is >80%. Moreover, in data set [3], the AUC is < 50 ng·h/mL and the maximum concentration (Cmax) was < 30 ng/mL. The IC50 on rat NaP2b (SLC34A2) is < 1000 nM.

In the case of `CCN(CC)c1ccc(NC(=O)c2cccc(CSc3cccc(CC(=O)O)c3)c2)c(-c2cc(C(=O)NCc3cccc(C(F)(F)F)c3)ccn2)c1` [Example 143, 2-(3-(3-(4-(diethylamino)-2-(4-(3-(trifluoromethyl)benzylcarbamoyl)pyridin-2-yl)phenylcarbamoyl)benzylthio)phenyl)acetic acid], the IC50 on human NaP2b (SLC34A2) and against rat NaP2b (SLC34A2) was < 1000 nM in each case. Moreover, the AUC in data set [3] was < 10 ng·h/mL. In addition, the peak concentration (Cmax) in data set [3] is < 10 ng/mL.

Regarding `CCN(CC)c1ccc(NC(=O)c2cccc(Cn3ccc4c(C(=O)NCCOCCOCCOCCC(=O)O)cccc43)c2)c(-c2cc(C(=O)N[C@H]3CCCc4ccccc43)ccn2)c1` [Example 182, (S)-1-(1-(3-(4-(diethylamino)-2-(4-(1,2,3,4-tetrahydronaphthalen-1-ylcarbamoyl)pyridin-2-yl)phenylcarbamoyl)benzyl)-1H-indol-4-yl)-1-oxo-5,8,11-trioxa-2-azatetradecan-14-oic acid], the “% remaining, SIF” value in data set [1] is reported as >80%. In addition, the “% remaining, SGF” value in data set [2] was >80%.

As to `CCN(CC)c1ccc(NC(=O)c2cccc(C(=O)N(C)CCN3CCCN(C(=O)OCCOCCOCCOCCOCCOCCOCCOCCOCCOCCOCCOC)CC3)c2)c(-c2cc(C(=O)N[C@H]3CCCc4ccccc43)ccn2)c1` [Example 199, (S)-2,5,8,11,14,17,20,23,26,29,32-undecaoxatetratriacontan-34-yl 4-(2-(3-((4-(diethylamino)-2-(4-((1,2,3,4-tetrahydronaphthalen-1-yl)carbamoyl)pyridin-2-yl)phenyl)carbamoyl)-N-methylbenzamido)ethyl)-1,4-diazepane-1-carboxylate], the “% remaining, SIF” value in data set [1] is recorded as >80%. The “% remaining, SGF” value in data set [2] is given as >80%. Also, in data set [3], the AUC is < 10 ng·h/mL and the highest concentration (Cmax) is < 10 ng/mL.

Consider `CN(CCN1CCNC(=O)C1)C(=O)c1cccc(C(=O)Nc2ccc(N3CCCCC3)cc2-c2cc(C(=O)N[C@H]3CCCc4ccccc43)ccn2)c1` [Example 215, (S)—N1-methyl-N1-(2-(3-oxopiperazin-1-yl)ethyl)-N3-(4-(piperidin-1-yl)-2-(4-(1,2,3,4-tetrahydronaphthalen-1-ylcarbamoyl)pyridin-2-yl)phenyl)isophthalamide], for which the IC50 on human NaP2b (SLC34A2) is < 1000 nM. In data set [3], the AUC was < 10 ng·h/mL and the Cmax was < 10 ng/mL. The IC50 on rat NaP2b (SLC34A2) was < 1000 nM.

Regarding `CN1CCN(CCN(C)C(=O)c2cccc(C(=O)Nc3ccc(N4CCCCC4)cc3-c3cc(C(=O)N[C@H]4CCCc5ccccc54)ccn3)c2)CC1=O` [Example 216, (S)—N1-methyl-N1-(2-(4-methyl-3-oxopiperazin-1-yl)ethyl)-N3-(4-(piperidin-1-yl)-2-(4-(1,2,3,4-tetrahydronaphthalen-1-ylcarbamoyl)pyridin-2-yl)phenyl)isophthalamide], the IC50 on human NaP2b (SLC34A2) was < 1000 nM. In data set [3], the AUC was < 10 ng·h/mL and the Cmax was < 10 ng/mL. The IC50 against rat NaP2b (SLC34A2) was < 1000 nM.

Turning to `O=C(O)CCOCCOCCOCCNC(=O)c1cccc(SCc2cccc(C(=O)Nc3ccc(N4CCCCC4)cc3-c3cc(C(=O)N[C@H]4CCCc5ccccc54)ccn3)c2)c1` [Example 233, (S)-1-oxo-1-(3-(3-(4-(piperidin-1-yl)-2-(4-(1,2,3,4-tetrahydronaphthalen-1-ylcarbamoyl)pyridin-2-yl)phenylcarbamoyl)benzylthio)phenyl)-5,8,11-trioxa-2-azatetradecan-14-oic acid], the IC50 on human NaP2b (SLC34A2) and against rat NaP2b (SLC34A2) was 1000 to 7940 nM throughout. Further, the AUC in data set [3] was < 10 ng·h/mL. Further, the Cmax in data set [3] is < 10 ng/mL.

As to `O=C(O)Cc1cccc(SCc2cccc(C(=O)Nc3ccc(N4CCCCC4)cc3-c3cc(C(=O)N[C@H]4CCCc5ccccc54)ccn3)c2)c1` [Example 234, (S)-2-(3-(3-(4-(piperidin-1-yl)-2-(4-(1,2,3,4-tetrahydronaphthalen-1-ylcarbamoyl)pyridin-2-yl)phenylcarbamoyl)benzylthio)phenyl)acetic acid], the IC50 at human NaP2b (SLC34A2) was < 1000 nM. In data set [3], the AUC was < 30 ng·h/mL and the Cmax is < 10 ng/mL. The IC50 against rat NaP2b (SLC34A2) was < 1000 nM.

Turning to `CN(CCOCCOCCOCCC(=O)O)C(=O)Cc1cccc(SCc2cccc(C(=O)Nc3ccc(N4CCCCC4)cc3-c3cc(C(=O)N[C@H]4CCCc5ccccc54)ccn3)c2)c1` [Example 235, (S)-3-methyl-2-oxo-1-(3-(3-(4-(piperidin-1-yl)-2-(4-(1,2,3,4-tetrahydronaphthalen-1-ylcarbamoyl)pyridin-2-yl)phenylcarbamoyl)benzylthio)phenyl)-6,9,12-trioxa-3-azapentadecan-15-oic acid], the “% remaining, SIF” value in data set [1] is recorded as >80%. Also, the “% remaining, SGF” value in data set [2] is reported as >80%. Also, the IC50 on rat NaP2b (SLC34A2) was < 1000 nM.

With `CCN(CC)c1ccc(NC(=O)c2cccc(C(=O)N(C)CCN(CCOC)CCOCCOCCOCCC(=O)N(C)CCN3CCOCC3)c2)c(-c2cc(C(=O)NCc3cccc(C(F)(F)F)c3)ccn2)c1` [Example 338, N^1-(4-(Diethylamino)-2-(4-(3-(trifluoromethyl)benzylcarbamoyl)pyridin-2-yl)phenyl)-N^3-(3-(2-methoxyethyl)-16-methyl-18-morpholino-15-oxo-6,9,12-trioxa-3,16-diazaoctadecyl)-N^3-methylisophthalamide], the IC50 at human NaP2b (SLC34A2) and on rat NaP2b (SLC34A2) was 1000 to 7940 nM in each case.
